The target of this assay is T1, recombinant human ALX receptor (Homo sapiens, UniProt P25090).
T1 construct: expressed in transfected cells; host or cells: HEK293 (HEK293-hALXR-Gα16)
T1 sequence (P25090 1-351): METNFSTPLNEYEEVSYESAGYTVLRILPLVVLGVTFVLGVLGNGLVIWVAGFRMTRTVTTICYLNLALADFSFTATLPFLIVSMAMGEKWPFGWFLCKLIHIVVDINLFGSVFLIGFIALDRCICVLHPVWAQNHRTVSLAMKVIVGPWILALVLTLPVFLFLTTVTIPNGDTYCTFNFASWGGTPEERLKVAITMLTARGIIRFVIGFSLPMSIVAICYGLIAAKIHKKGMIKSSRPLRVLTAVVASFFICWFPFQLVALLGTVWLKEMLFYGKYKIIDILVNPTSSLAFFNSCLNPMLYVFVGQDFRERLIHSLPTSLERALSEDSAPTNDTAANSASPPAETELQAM
Description: Intracellular calcium measurements (FLIPR), ALX receptor agonistic activity. Type of assay: cell-based. The note with it: HEK293-hALXR-Gα16 cells, Fluo-4 calcium signal, normalized to WKYMVm 10 nM. A digest of the protocol:
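HEK293 cells co-expressing human ALX receptor and Gα16 were loaded with 1 μM Fluo-4 AM for 60 min at 37° C., then exposed to serially diluted compounds on FLIPR Tetra. Peak fluorescence above baseline (ex 488/em 540 nm) was normalized to 10 nM WKYMVm as high control.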
On the technique in general: A change in cytosolic calcium serves as a functional read-out for many receptors and channels.

Structures can show the parent of a compound that is named as a salt.

By EC50 is commonly meant the concentration that produces a half-maximal response.

Take `O=C(N[C@H](Cc1ccc(Br)cc1)c1nc2ccccc2[nH]1)NC12CCC(O)(CC1)CC2` [Example 220, (R)-1-(1-(1H-Benzo[d]imidazol-2-yl)-2-(4-bromophenyl)ethyl)-3-(4-hydroxybicyclo[2.2.2]octan-1-yl)urea]: the EC50 is 4.9 nM. In the case of `Cc1ccc2nc([C@@H](Cc3ccc(Br)cc3)NC(=O)N[C@H]3CC[C@H](O)CC3)[nH]c2c1` [Example 221, 1-((R)-2-(4-Bromophenyl)-1-(6-methyl-1H-benzo[d]imidazol-2-yl)ethyl)-3-(trans-4-hydroxycyclohexyl)urea] it was 4 nM. The figure for `O=C(N[C@H](Cc1ccc(Br)cc1)c1nc2ccc(C(F)(F)F)cc2[nH]1)N[C@H]1CC[C@H](O)CC1` [Example 222, 1-((R)-2-(4-Bromophenyl)-1-(6-(trifluoromethyl)-1H-benzo[d]imidazol-2-yl)ethyl)-3-(trans-4-hydroxycyclohexyl)urea] is 7.8 nM; for `COc1ccc(C[C@@H](NC(=O)N[C@H]2CC[C@@H](C(=O)OC)CC2)c2nc3ccccc3[nH]2)cc1` [Example 223, cis-Methyl 4-(3-((R)-1-(1H-benzo[d]imidazol-2-yl)-2-(4-methoxyphenyl)ethyl)ureido)cyclohexanecarboxylate] it is 178 nM. In the case of `COc1ccc(C[C@@H](NC(=O)N[C@H]2CC[C@H](C(=O)OC)CC2)c2nc3ccccc3[nH]2)cc1` [Example 224, trans-Methyl 4-(3-((R)-1-(1H-benzo[d]imidazol-2-yl)-2-(4-methoxyphenyl)ethyl)ureido)cyclohexanecarboxylate] it was 8.2 nM; in that of `COc1ccc(C[C@@H](NC(=O)N[C@H]2CC[C@H](C(=O)O)CC2)c2nc3ccccc3[nH]2)cc1` [Example 225, trans-4-(3-((R)-1-(1H-Benzo[d]imidazol-2-yl)-2-(4-methoxyphenyl)ethyl)ureido)cyclohexanecarboxylic acid, lithium salt], 48 nM; in that of `COC(=O)C1CCCC(NC(=O)N[C@H](Cc2ccc(OC)cc2)c2nc3ccccc3[nH]2)C1` (stereo partly drawn) [Example 228, Methyl 3-(3-((R)-1-(1H-benzo[d]imidazol-2-yl)-2-(4-methoxyphenyl)ethyl)ureido)cyclohexanecarboxylate], 11 nM. Turning to `COc1ccc(C[C@@H](NC(=O)NC2CCCC(C(=O)O)C2)c2nc3ccccc3[nH]2)cc1` (stereo partly drawn) [Example 229, Lithium 3-(3-((R)-1-(1H-benzo[d]imidazol-2-yl)-2-(4-methoxyphenyl)ethyl)ureido)cyclohexanecarboxylate], the EC50 is 94 nM. The figure for `O=C(NC(Cc1ccc(Br)c(F)c1)c1nc2ccccc2[nH]1)NC12CCC(O)(CC1)CC2` (centres unmarked) [Example 230, 1-(1-(1H-Benzo[d]imidazol-2-yl)-2-(4-bromo-3-fluorophenyl)ethyl)-3-(4-hydroxybicyclo[2.2.2]octan-1-yl)urea] is 21 nM. In the case of `COc1ccc(CC(NC(=O)NC23CCC(O)(CC2)CC3)c2nc3ccccc3[nH]2)c(F)c1` (centres unmarked) [Example 233, 1-(1-(1H-Benzo[d]imidazol-2-yl)-2-(2-fluoro-4-methoxyphenyl)ethyl)-3-(4-hydroxybicyclo[2.2.2]octan-1-yl)urea] it was 3.7 nM; in that of `O=C(NC(Cc1ccc(C(F)(F)F)c(F)c1)c1nc2ccccc2[nH]1)NC12CCC(O)(CC1)CC2` (centres unmarked) [Example 238, 1-(1-(1H-Benzo[d]imidazol-2-yl)-2-(3-fluoro-4-(trifluoromethyl)phenyl)ethyl)-3-(4-hydroxybicyclo[2.2.2]octan-1-yl)urea], 36 nM.

On to `COc1ccc(CC(NC(=O)NC23CCC(O)(CC2)CC3)c2nc3ccc(F)cc3[nH]2)c(F)c1` (centres unmarked) [Example 245, 1-(1-(6-Fluoro-1H-benzo[d]imidazol-2-yl)-2-(2-fluoro-4-methoxyphenyl)ethyl)-3-(4-hydroxybicyclo[2.2.2]octan-1-yl)urea], for which the 50% effective concentration (EC50) was determined as 4.1 nM. In the case of `COc1cc(F)c(CC(NC(=O)NC23CCC(O)(CC2)CC3)c2nc3ccccc3[nH]2)c(F)c1` (centres unmarked) [Example 248, 1-(1-(1H-Benzo[d]imidazol-2-yl)-2-(2,6-difluoro-4-methoxyphenyl)ethyl)-3-(4-hydroxybicyclo[2.2.2]octan-1-yl)urea] it was 4.5 nM; in that of `COc1cc(F)c(CC(NC(=O)NC23CCC(O)(CC2)CC3)c2nc3ccccc3[nH]2)cc1F` (centres unmarked) [Example 249, 1-(1-(1H-Benzo[d]imidazol-2-yl)-2-(2,5-difluoro-4-methoxyphenyl)ethyl)-3-(4-hydroxybicyclo[2.2.2]octan-1-yl)urea], 4.2 nM; in that of `COc1ccc(CC(NC(=O)NC23CCC(O)(CC2)CC3)c2nc3ccccc3[nH]2)c(F)c1F` (centres unmarked) [Example 251, 1-(1-(1H-Benzo[d]imidazol-2-yl)-2-(2,3-difluoro-4-methoxyphenyl)ethyl)-3-(4-hydroxybicyclo[2.2.2]octan-1-yl)urea], 6.6 nM. For `O=C(NC(Cc1ccc(Br)cc1F)c1nc2ccccc2[nH]1)NC12CCC(O)(CC1)CC2` (centres unmarked) [Example 254, 1-(1-(1H-Benzo[d]imidazol-2-yl)-2-(4-bromo-2-fluorophenyl)ethyl)-3-(4-hydroxybicyclo[2.2.2]octan-1-yl)urea], the EC50 is 21 nM. The figure for `O=C(N[C@H](Cc1ccc(C(F)(F)F)cc1)c1nc2ccccc2[nH]1)NC12CCC(O)(CC1)CC2` [Example 255, (R)-1-(1-(1H-Benzo[d]imidazol-2-yl)-2-(4-(trifluoromethyl)phenyl)ethyl)-3-(4-hydroxybicyclo[2.2.2]octan-1-yl)urea] is 27 nM. Turning to `C[C@]1(O)CC[C@H](NC(=O)N[C@H](Cc2ccc(C(F)(F)F)cc2)c2nc3ccccc3[nH]2)CC1` [Example 256, 1-((R)-1-(1H-Benzo[d]imidazol-2-yl)-2-(4-(trifluoromethyl)phenyl)ethyl)-3-(trans-4-hydroxy-4-methylcyclohexyl)urea], the EC50 is 13 nM.

Turning to `O=C(N[C@H](Cc1ccc(C(F)(F)F)cc1)c1nc2cc(F)ccc2[nH]1)N[C@H]1CC[C@H](O)CC1` [Example 265, 1-((R)-1-(5-Fluoro-1H-benzo[d]imidazol-2-yl)-2-(4-(trifluoromethyl)phenyl)ethyl)-3-(trans-4-hydroxycyclohexyl)urea], the EC50 turned out to be 4.7 nM. In the case of `O=C(N[C@H](Cc1ccc(C(F)(F)F)cc1)c1nc2cc(F)ccc2[nH]1)NC12CCC(O)(CC1)CC2` [Example 267, (R)-1-(1-(5-Fluoro-1H-benzo[d]imidazol-2-yl)-2-(4-(trifluoromethyl)phenyl)ethyl)-3-(4-hydroxybicyclo[2.2.2]octan-1-yl)urea] it was 14 nM; in that of `COc1ccc(C[C@@H](NC(=O)NCc2ccccn2)c2nc3ccccc3[nH]2)cc1` [Example 268, (R)-1-(1-(1H-Benzo[d]imidazol-2-yl)-2-(4-methoxyphenyl)ethyl)-3-(pyridin-2-ylmethyl)urea], 659 nM; in that of `COc1ccc(C[C@@H](NC(=O)NCCc2ccc(C(F)(F)F)cc2)c2nc3ccccc3[nH]2)cc1` [Example 269, (R)-1-(1-(1H-Benzo[d]imidazol-2-yl)-2-(4-methoxyphenyl)ethyl)-3-(4-(trifluoromethyl)phenethyl)urea], 471 nM.

For the molecule `COc1ccc(C[C@@H](NC(=O)NC(C)(C)c2ccc(C)cc2)c2nc3ccccc3[nH]2)cc1` [Example 270, (R)-1-(1-(1H-Benzo[d]imidazol-2-yl)-2-(4-methoxyphenyl)ethyl)-3-(2-(p-tolyl)propan-2-yl)urea], the 50% effective concentration (EC50) came out at 225 nM. In the case of `COc1ccc(C[C@@H](NC(=O)NC(C)c2ccc(OC(F)F)cc2)c2nc3ccccc3[nH]2)cc1` (stereo partly drawn) [Example 271, 1-((R)-1-(1H-Benzo[d]imidazol-2-yl)-2-(4-methoxyphenyl)ethyl)-3-(1-(4-(difluoromethoxy)phenyl)ethyl)urea] it was 120 nM; in that of `COc1ccc(C[C@@H](NC(=O)NCc2ccc(CN(C)C)cc2)c2nc3ccccc3[nH]2)cc1` [Example 272, (R)-1-(1-(1H-Benzo[d]imidazol-2-yl)-2-(4-methoxyphenyl)ethyl)-3-(4-((dimethylamino)methyl)benzyl)urea], 339 nM.

Take `COc1ccc(C[C@@H](NC(=O)NCc2cccc(C(F)(F)F)c2Cl)c2nc3ccccc3[nH]2)cc1` [Example 273, (R)-1-(1-(1H-Benzo[d]imidazol-2-yl)-2-(4-methoxyphenyl)ethyl)-3-(2-chloro-3-(trifluoromethyl)benzyl)urea]: the concentration for a half-maximal effect (EC50) was found to be 234 nM. The figure for `COc1ccc(C[C@@H](NC(=O)NCCc2ccccc2C(F)(F)F)c2nc3ccccc3[nH]2)cc1` [Example 274, (R)-1-(1-(1H-Benzo[d]imidazol-2-yl)-2-(4-methoxyphenyl)ethyl)-3-(2-(trifluoromethyl)phenethyl)urea] is 115 nM; for `COc1ccc(C[C@@H](NC(=O)NCCc2ccc(C)c(C)c2)c2nc3ccccc3[nH]2)cc1` [Example 275, (R)-1-(1-(1H-Benzo[d]imidazol-2-yl)-2-(4-methoxyphenyl)ethyl)-3-(3,4-dimethylphenethyl)urea] it is 126 nM. As to `COc1ccc(C[C@@H](NC(=O)NCc2cccc(C)c2)c2nc3ccccc3[nH]2)cc1` [Example 276, (R)-1-(1-(1H-Benzo[d]imidazol-2-yl)-2-(4-methoxyphenyl)ethyl)-3-(3-methylbenzyl)urea], the EC50 was found to be 229 nM.

The values above are taken from patent US9663473B2 (Actelion Pharmaceuticals Ltd, priority 2013, dated 2017).
